Experimental data as given in US9029405B2, “5-(biphenyl-4-yl)-3-phenyl-1,2,4-oxadiazolyl derivatives as ligands on the sphingosine 1-phosphate(SIP)receptors” (Merck Serono S.A., priority 2010, dated 2015).
Where a name gives a salt, the structure may show the parent alone. Read-outs that look alike come from different tables or passages of the source.

Columns and labels:
[1] = biological target: T1, S1P1 (Homo sapiens, UniProt P21453); assay: S1P1 internalization assay in S1P1-U2OS cells (cell imaging); assay type: cell-based; parameters: host or cells: U2OS (human bone osteosarcoma epithelial cells); conditions: U2OS cells expressing S1P1-EGFP, 384-well format
Experimental: Cellular Functional Assays: Internalization of Sphinqosine-1-phosphate Receptor 1 (S1P1) in a Human Cell Line (U2OS) in a 384-Well Format Using a Cell Imaging Analysis.
The S1P1 internalization assay was performed in 384 well plates (Corning 384 black with clear bottom 3712) using S1P1-U2OS cells from BioImage (C039A), a human epithelial cell line (Human Bone Osteosarcoma Epithelial Cells). These cells expressed the human S1P1 Receptor fused to the green fluorescent protein (EGFP). A standard CMV promoter (cytomegalovirus promoter) controls the expression of S1P1-EGFP and continuous expression was maintained by addition of geneticin to the culture medium.
S1P1 Receptor desensitization induced the internalization of the membrane-localized S1P-EGFP fusion protein to endosomes, which can be monitored by cell imaging analysis.
The cells are plated in low serum medium (Dulbecco's Modified Eagle Medium (DMEM) with Glutamax-1 and high glucose, 1% Penicillin/Streptomycin, 1% Fetal Calf Serum (FCS), 0.5 mg/ml Geneticin) overnight.
The next day, S1P1-U2OS cells are incubated in 20 μl serum free medium (DMEM with Glutamax-1 and high glucose, 0.1% of fatty-acid free Bovin Serum Albumin (BSA), 10 mM, N′-2-Hydroxyethylpiperazine-N′-2 ethanesulphonic acid (HEPES) 1M) for 2 hours at 37° C./5% CO2. The cells are then treated with 4 μl compounds/agonists (6×/3% DMSO) for a total volume of 24 μl, and plates are incubated for 1 hour at 37° C./5% CO2.
S1P1-U2OS cells are fixed with 25 μl Paraformaldehyde 8% and stained with Hoechst 33345 dye (1:1000) for 20 minutes.
They were then washed 3 times with Phosphate Buffered Saline (PBS) and plates are sealed. The internalization of the receptor S1P1-EGFP is measured on Cellomics by calculating the “spot count per object” (“object” corresponds to nuclear and “spot” corresponds to S1P1-EGFP receptor). Internalization data were observed thanks to vHCS View and analyzed using Genedata® software.
Target sequence in this assay (P21453 whole entry): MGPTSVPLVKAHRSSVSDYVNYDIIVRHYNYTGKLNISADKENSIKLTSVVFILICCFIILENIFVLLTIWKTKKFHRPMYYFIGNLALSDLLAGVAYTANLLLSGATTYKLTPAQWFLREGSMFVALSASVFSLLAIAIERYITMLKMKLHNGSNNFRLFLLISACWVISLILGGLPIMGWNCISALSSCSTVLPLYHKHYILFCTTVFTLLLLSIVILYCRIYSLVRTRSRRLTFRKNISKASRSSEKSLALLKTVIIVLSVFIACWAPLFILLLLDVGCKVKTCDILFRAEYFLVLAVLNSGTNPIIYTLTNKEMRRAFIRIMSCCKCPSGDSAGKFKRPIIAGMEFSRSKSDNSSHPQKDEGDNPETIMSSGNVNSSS

[2] = biological target: T1, S1P1; assay: Receptor binding assay, [33P]sphingosine 1-phosphate competition, membranes of CHO cells expressing S1P1
Experimental: (§1) Membranes were prepared from CHO cells expressing S1P1 or S1P3 for use in ligand binding studies. Cells were suspended in 50 mM TRIS, pH 7.4, 2 mM EDTA, 250 mM Sucrose (buffer A) and 1× Complete protease inhibitor cocktail (Roche), and disrupted at 4° C. by N2 decompression using a cell disruption bomb (Parr Instrument). Following centrifugation at 1000 RPM for 10 min at 4° C., the supernatant was diluted (2×) in buffer A and centrifuged again at 19000 RPM for 75 min at 4° C. The pellet was then suspended in 10 mM HEPES, pH 7.4, 1 mM EDTA, 250 mM Sucrose (Buffer B), and 1× Complete EDTA-free protease inhibitor cocktail and homogenized using a potter. Membranes were flash frozen in liquid N2 and stored at −80° C.
(§2) [33P]sphingosine 1-phosphate (3000 Ci/mmol; American Radiolabeled Chemicals, Inc.) was added to test compounds in 20% DMSO by competition. Membranes and WGA SPA beads (GE Healthcare) were added to give a final volume of 100 μl in 96-well plates or 50 μl in 384-well plates with assay concentrations of 30 pM or 15 pM [33P]sphingosine 1-phosphate (respectively for S1P1 or S1P3), 50 mM HEPES, pH 7.5, 5 mM MgCl2, 100 mM NaCl, 0.4% fatty acid-free BSA, 1-5 μg/well of proteins in 96-well plates vs 0.6-1 μg/well of proteins in 384-well plates and 100 μg/well of WGA SPA beads in 96-well plates vs 75 μg/well of WGA SPA beads in 384-well plates. Binding was performed for 60 min at RT on a shaker and bound radioactivity was measured on a PerkinElmer 1450 MicroBeta counter. Triplicate samples were averaged and normalized as percentage of inhibition relative to total binding (only DMSO in well) and non specific binding (1000-fold excess of unlabeled S1P). Binding data were analyzed using the GraphPad Prism program or Genedata software.
(§3) The “potency” or the “activity” of the compounds is determined by the Ki values as evaluated in one of the above described binding assay, 96 or 384 well plates.
Target sequence in this assay (P21453 whole entry, species assumed): as the sequence (P21453 whole entry) above

[3] = biological target: S1P3 (Homo sapiens, UniProt Q99500); assay: Receptor binding assay, [33P]sphingosine 1-phosphate competition, membranes of CHO cells expressing S1P3
Experimental: as §1, §2, §3

[4] = 384 well plate, read-out: S1P1 Binding Ki [M] (384 well plate)
[5] = 384 well plate, read-out: S1P3 Binding Ki [M] (384 well plate)
[6] = 96 well plate, read-out: S1P1 Binding Ki [M] (96 well plate)
[7] = 96 well plate, read-out: S1P3 Binding Ki [M] (96 well plate)

Chain of S1P3 (Q99500 whole entry, species assumed): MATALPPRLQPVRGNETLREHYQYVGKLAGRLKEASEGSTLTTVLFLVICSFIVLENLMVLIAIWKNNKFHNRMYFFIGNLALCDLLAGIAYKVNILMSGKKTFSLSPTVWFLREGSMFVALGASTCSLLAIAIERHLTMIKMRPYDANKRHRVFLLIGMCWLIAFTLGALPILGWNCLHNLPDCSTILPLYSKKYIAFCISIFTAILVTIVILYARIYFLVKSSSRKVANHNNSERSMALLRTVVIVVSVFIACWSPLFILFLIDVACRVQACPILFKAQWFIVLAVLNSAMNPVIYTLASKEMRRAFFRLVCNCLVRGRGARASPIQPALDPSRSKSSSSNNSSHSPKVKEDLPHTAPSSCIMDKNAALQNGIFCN

Compound | EC50 [1] [nM] | Ki [2, 4] [M] | Ki [3, 5] [M] | Ki [2, 6] [M] | Ki [3, 7] [M]
Cc1ccccc1-c1ccc(-c2nc(-c3ccc([C@H](C)N[C@@H](C)C(=O)O)cc3)no2)cc1C(F)(F)F [Example 18, N-[(1S)-1-(4-{5-[2′-methyl-2-(trifluoromethyl)biphenyl-4-yl]-1,2,4-oxadiazol-3-yl}phenyl)ethyl]-L-alanine, hydrochloride salt] | 116 | 1.03e-08 | 3.65e-06 | – | –
Cc1ccccc1-c1ccc(-c2nc(-c3ccc([C@H](C)N[C@@H](C)C(=O)O)cc3)no2)cc1C(F)(F)F (racemic) [Example 26, N-[(1S)-1-(4-{5-[2′-methyl-2-(trifluoromethyl)biphenyl-4-yl]-1,2,4-oxadiazol-3-yl}phenyl)ethyl]-L-alanine, hydrochloride salt and N-[(1R)-1-(4-{5-[2′-methyl-2-(trifluoromethyl)biphenyl-4-yl]-1,2,4-oxadiazol-3-yl}phenyl)ethyl]-D-alanine, hydrochloride salt] | 21.6 | 2.24e-09 | 1.65e-06 | – | –
Cc1cc(-c2nc(-c3ccc([C@@H](C)NCC(=O)O)cc3)no2)ccc1-c1ccccc1C(F)(F)F [Example 8, N-[(1R)-1-(4-{5-[2-methyl-2′-(trifluoromethyl)biphenyl-4-yl]-1,2,4-oxadiazol-3-yl}phenyl)ethyl]glycine, hydrochloride salt] | 26.9 | 3.68e-09 | 6.38e-06 | 9.13e-10 | > 2e-05
COCc1cc(-c2nc(-c3ccc([C@@H](C)NCC(=O)O)cc3)no2)ccc1-c1ccccc1C [Example 9, N-[(1R)-1-(4-{5-[2-(methoxymethyl)-2′-methylbiphenyl-4-yl]-1,2,4-oxadiazol-3-yl}phenyl)ethyl]glycine, hydrochloride salt] | 4.34 | 1.11e-09 | 4.94e-07 | 1.75e-10 | 7.7e-07
Cc1ccccc1-c1ccc(-c2nc(-c3ccc(CN[C@H](C(=O)O)C(C)C)c(F)c3)no2)cc1C(F)(F)F [Example 47, N-(2-fluoro-4-{5-[2′-methyl-2-(trifluoromethyl)biphenyl-4-yl]-1,2,4-oxadiazol-3-yl}benzyl)valine, hydrochloride salt] | 39.1 | 4.26e-09 | 1.95e-05 | – | –
Cc1ccccc1-c1ccc(-c2nc(-c3ccc(C(C)NCC(=O)O)cc3)no2)cc1C(F)(F)F (stereo not drawn) [Example 32, N-[1-(4-{5-[2′-methyl-2-(trifluoromethyl)biphenyl-4-yl]-1,2,4-oxadiazol-3-yl}phenyl)ethyl]glycine, hydrochloride salt] | 7.58 | 1.69e-09 | 4.33e-07 | – | –
Cc1ccccc1-c1ccc(-c2nc(-c3cccc(CCN[C@H](C)C(=O)O)c3)no2)cc1C(F)(F)F [Example 95] | 4.25 | 8.46e-10 | 1.12e-07 | 2.15e-10 | –
COCc1cc(-c2nc(-c3ccc([C@@H](C)N[C@H](C)C(=O)O)cc3)no2)ccc1-c1ccccc1C [Example 4, N-[(1R)-1-(4-{5-[2-(methoxymethyl)-2′-methylbiphenyl-4-yl]-1,2,4-oxadiazol-3-yl}phenyl)ethyl]-D-alanine, hydrochloride salt] | 2 | 9.18e-10 | 8.63e-07 | 1.45e-10 | 2.2e-06
Cc1cc(-c2nc(-c3ccc(CNC(C)(C)C(=O)O)c(F)c3)no2)ccc1-c1ccccc1C(F)(F)F [Example 48, N-(2-fluoro-4-{5-[2-methyl-2′-(trifluoromethyl)biphenyl-4-yl]-1,2,4-oxadiazol-3-yl}benzyl)-2-methylalanine, hydrochloride salt] | 23.8 | 4.68e-09 | > 2e-05 | – | –
Cc1ccccc1-c1ccc(-c2nc(-c3cccc(CN(C)C(C(=O)O)C(C)C)c3)no2)cc1C(F)(F)F (stereo not drawn) [Example 85] | 47.9 | 5.26e-09 | 7.93e-07 | – | –
Cc1ccccc1-c1ccc(-c2nc(-c3ccc([C@@H](C)N[C@@H](C)C(=O)O)cc3)no2)cc1C(F)(F)F [Example 19, N-[(1R)-1-(4-{5-[2′-methyl-2-(trifluoromethyl)biphenyl-4-yl]-1,2,4-oxadiazol-3-yl}phenyl)ethyl]-L-alanine, hydrochloride salt] | 45.6 | 3.98e-09 | 2.56e-06 | – | –

The remaining lines, values ahead:

EC50 [1] [nM] | Ki [2, 4] [M] | Ki [3, 5] [M] | Ki [2, 6] [M] | Ki [3, 7] [M] | Compound
21.3 | 1.71e-09 | 7.05e-06 | – | – | Cc1cc(-c2nc(-c3ccc(C(C)NCC(=O)O)cc3)no2)ccc1-c1ccccc1C(F)(F)F (stereo not drawn) [Example 23, N-[1-(4-{5-[2-methyl-2′-(trifluoromethyl)biphenyl-4-yl]-1,2,4-oxadiazol-3-yl}phenyl)ethyl]glycine, hydrochloride salt]
19.9 | 5.69e-09 | > 2e-05 | – | – | Cc1ccccc1-c1ccc(-c2nc(-c3ccc(CNC(C)(C)C(=O)O)cc3)no2)cc1C(F)(F)F [Example 57]
86.2 | 4.78e-09 | > 2e-05 | – | – | Cc1cc(-c2nc(-c3ccc(C(C)N(C)CC(=O)O)cc3)no2)ccc1-c1ccccc1C(F)(F)F (stereo not drawn) [Example 14, N-methyl-N-[1-(4-{5-[2-methyl-2′-(trifluoromethyl)biphenyl-4-yl]-1,2,4-oxadiazol-3-yl}phenyl)ethyl]glycine, hydrochloride salt]
6.51 | 1.72e-09 | 4.7e-07 | 4.14e-10 | 5.98e-07 | Cc1ccccc1-c1ccc(-c2nc(-c3ccc([C@@H](C)NCC(=O)O)cc3)no2)cc1C(F)(F)F [Example 22, N-[(1R)-1-(4-{5-[2′-methyl-2-(trifluoromethyl)biphenyl-4-yl]-1,2,4-oxadiazol-3-yl}phenyl)ethyl]glycine, hydrochloride salt]
26 | 3.96e-09 | 2.32e-06 | – | – | CC[C@@H](N[C@H](C)c1ccc(-c2noc(-c3ccc(-c4ccccc4C)c(C(F)(F)F)c3)n2)cc1)C(=O)O [Example 11, (2R)-2-{[(1R)-1-(4-{5-[2′-methyl-2-(trifluoromethyl)biphenyl-4-yl]-1,2,4-oxadiazol-3-yl}phenyl)ethyl]amino}butanoic acid, hydrochloride salt]
28.1 | 2.59e-09 | > 2e-05 | – | – | Cc1cc(-c2nc(-c3ccc([C@H](C)N[C@H](C)C(=O)O)cc3)no2)ccc1-c1ccccc1C(F)(F)F (racemic) [Example 25, N-[(1S)-1-(4-{5-[2-methyl-2′-(trifluoromethyl)biphenyl-4-yl]-1,2,4-oxadiazol-3-yl}phenyl)ethyl]-D-alanine and N-[(1R)-1-(4-{5-[2-methyl-2′-(trifluoromethyl)biphenyl-4-yl]-1,2,4-oxadiazol-3-yl}phenyl)ethyl]-L-alanine]
30.8 | 2.68e-09 | 4.36e-07 | – | – | Cc1ccccc1-c1ccc(-c2nc(-c3ccc(CN(C)[C@@H](CO)C(=O)O)c(F)c3)no2)cc1C(F)(F)F [Example 45, N-(2-fluoro-4-{5-[2′-methyl-2-(trifluoromethyl)biphenyl-4-yl]-1,2,4-oxadiazol-3-yl}benzyl)-N-methylserine, hydrochloride salt]
